Experimental findings from article PMC10767194 (The Journal of Biological Chemistry, 2023) are described below.

One experiment has as its target T1, Cdk10/CycQ (Homo sapiens, UniProt Q15131).
T1 construct: Full-length, human, WT Cdk10 (residues 1–360, UniProt Q15131); made in house; host or cells: Sf9 insect cells
In words: radioactive in vitro kinase assay, Cdk10/CycQ. Type of experiment: biochemical. The note with it: 0.2 mM ATP. Here is the method: (§1) Radioactive kinase activity assays were performed in a total volume of 15 μl per sample in kinase assay buffer (50 mM Hepes/pH 7.6, 34 mM KCl, 7 mM MgCl2, 5 mM β-glycerol phosphate, and 2.5 mM dithioerythritol). Preincubation of 0.2 μM or 0.02 μM recombinant protein kinase with indicated concentrations of respective inhibitor and 0.2 to 2 mM ATP containing 0.45 mCi [^32P]-γ-ATP/ml (PerkinElmer) was carried out for 5 min. Kinase reactions were started by addition of substrate protein (10 μM GST-Rb1 for Cdk4/CycD3, 10 μM GST-CTD[52] for Cdk7/CycH/MAT1, 50 μM His-c-Myc for all others) and incubated for 20 min at 30 °C in a shaking incubator at 300 rpm. For pS7-CTD[3] peptide, the substrate concentration was increased to 100 μM and assays were performed for 60 min. Reactions were terminated by the addition of EDTA to a final concentration of 50 mM. […] Radioactive counts were determined in a Beckman Liquid Scintillation Counter (Beckman Coulter) for 1 min. […] IC50 values were extracted from triplicate measurements by sigmoidal curve fitting using DataGraph (v. 5.0; https://www.visualdatatools.com/DataGraph/) or were determined by applying the Morrison quadratic equation for tight binding inhibitors using GraphPad Prism 10 (https://www.graphpad.com/) ([40]).

A further experiment relates to T2, Cdk7/CycH.
T2 construct: Full-length, human, WT Cdk7 (residues 1–346, UniProt P50613); made in house; host or cells: Sf9 insect cells
In words: radioactive in vitro kinase assay, Cdk7/CycH. Type of experiment: biochemical, human. The settings on record: 0, 0.1, 1, 10, 100 μM compound, 0.2 μM kinase, 0.2 mM ATP. Here is the method: as §1

Experiment [1] has as its target T3, Cdk12/CycK (Homo sapiens, UniProt Q9NYV4).
T3 construct: GST (TEV site) (N, cleaved yes); made in house; host or cells: Sf9 insect cells, co-expressed with S. cerevisiae CAK1
In words: nanoDSF thermal protein stability, Cdk12/CycK. The format is binding. The note with it: 5 μM protein. Here is the method:
(§2) At 10 μM concentration, the thermal shift observed was +4.7 °C, while at 100 μM the thermal stability was increased by +6.2 °C (Table S2) compared to a DMSO control. Together, the results obtained from both SPR and nanoDSF measurements align well with the IC50 values determined for Cdk12∗/CycK and Cdk13∗/CycK kinases.
(§3) For identification of thermal protein stability, nanoDSF experiments were conducted using a Prometheus NT.48 (NanoTemper) instrument. […] at the wavelengths λ = 330 and 350 nm were monitored at an excitation power of 25% in a temperature range from 20 to 90 °C with a slope of 1.5 °C/min. The measurement was conducted and evaluated with the PR.ThermControl software (https://nanotempertech.com/prometheus/nt48-software/). Experiments were conducted in duplicates.

The next experiment has as its system T4, DYRK1A.
T4 construct: The kinase domain of human DYRK1A (residues 126–485, UniProt Q13627); made in house; host or cells: E. coli BL21 pLysS
In words: radioactive in vitro kinase assay, DYRK1A. The format is biochemical, human. The settings on record: 0, 0.1, 1, 10, 100 μM compound, 0.2 μM kinase, 0.2 mM ATP. Here is the method: as §1

The target of the next experiment is T5, Cdk13/CycK (Homo sapiens, UniProt Q14004).
T5 construct: The kinase domain of human Cdk13 (residues 694–1039, UniProt Q14004); made in house; host or cells: Sf9 insect cells, co-expressed with CAK1
T5 sequence (Q14004 694-1039): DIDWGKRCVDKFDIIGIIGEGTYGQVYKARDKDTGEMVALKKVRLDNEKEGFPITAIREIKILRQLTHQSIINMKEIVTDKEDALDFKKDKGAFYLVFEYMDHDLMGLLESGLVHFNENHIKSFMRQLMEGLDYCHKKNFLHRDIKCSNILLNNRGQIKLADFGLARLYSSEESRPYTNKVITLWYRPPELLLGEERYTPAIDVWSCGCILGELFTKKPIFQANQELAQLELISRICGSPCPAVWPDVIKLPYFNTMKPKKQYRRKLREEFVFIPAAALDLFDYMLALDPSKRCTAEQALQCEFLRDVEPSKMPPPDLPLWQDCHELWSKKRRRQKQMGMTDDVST
T5 sequence (O75909 1-267 partner limits assumed): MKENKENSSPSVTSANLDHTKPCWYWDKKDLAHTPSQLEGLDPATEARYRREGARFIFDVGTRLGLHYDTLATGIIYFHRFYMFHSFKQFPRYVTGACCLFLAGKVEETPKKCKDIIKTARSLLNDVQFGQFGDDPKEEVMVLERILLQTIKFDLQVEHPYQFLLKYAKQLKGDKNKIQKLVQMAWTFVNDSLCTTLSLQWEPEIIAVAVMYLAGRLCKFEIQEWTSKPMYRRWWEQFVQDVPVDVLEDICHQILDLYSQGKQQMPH
Kind of experiment: nanoDSF thermal protein stability, Cdk13/CycK. The format is binding. The settings on record: 5 μM protein. Here is the method:
as §2, §3
(In general: DSF heats the sample and reads unfolding from a dye or from intrinsic fluorescence.)

The test system of another experiment is T6, HIPK3.
T6 construct: human HIPK3 (residues 159–562, UniProt Q9H422); made in house; host or cells: Sf9 insect cells
Kind of experiment: radioactive in vitro kinase assay, HIPK3. The format is biochemical, human. The settings on record: 0, 0.1, 1, 10, 100 μM compound, 0.2 μM kinase, 0.2 mM ATP. Here is the method: as §1

In experiment [2] the target is T3, Cdk12/CycK. Kind of experiment: radioactive in vitro kinase assay, Cdk12/CycK. The note with it: 0, 0.1, 1, 10, 100 μM compound, 0.2 μM Cdk12, 0.2 mM ATP, His-c-Myc, 20 min. The format is biochemical. Here is the method: To a concentration of 0.2 μM kinase and 0.2 mM ATP, a compound concentration ranging from 0.1 nM to 1 mM was applied. Kinase reactions were started by the addition of 100 μM CTD peptide containing three hepta-repeats continuously prephosphorylated at position S7 (pS7-CTD[3]) and terminated after 60 min incubation time. In vitro IC50-values were determined by applying a sigmoidal fit to dose-response measurements (Fig. 1A).
Cdk12 kinase (0.2 μM) in the presence of 0.2 mM ATP were supplemented with respective compounds at concentrations of 0, 0.1, 1, 10, and 100 μM for 5 min. Upon addition of 50 μM His-c-Myc substrate the kinase assay reaction was conducted for 20 min.
Radioactive kinase activity assays were performed in a total volume of 15 μl per sample in kinase assay buffer (50 mM Hepes/pH 7.6, 34 mM KCl, 7 mM MgCl2, 5 mM β-glycerol phosphate, and 2.5 mM dithioerythritol). Preincubation of 0.2 μM or 0.02 μM recombinant protein kinase with indicated concentrations of respective inhibitor and 0.2 to 2 mM ATP containing 0.45 mCi [^32P]-γ-ATP/ml (PerkinElmer) was carried out for 5 min. Kinase reactions were started by addition of substrate protein (10 μM GST-Rb1 for Cdk4/CycD3, 10 μM GST-CTD[52] for Cdk7/CycH/MAT1, 50 μM His-c-Myc for all others) and incubated for 20 min at 30 °C in a shaking incubator at 300 rpm. For pS7-CTD[3] peptide, the substrate concentration was increased to 100 μM and assays were performed for 60 min. Reactions were terminated by the addition of EDTA to a final concentration of 50 mM. Reaction samples were separately spotted onto Amersham Protran nitrocellulose membranes (GE HealthCare) and subsequently washed three times for 5 min in PBS. Samples were transferred to 4 ml liquid scintillation vials and 2 ml liquid scintillator (Ultima Gold) were added. Radioactive counts were determined in a Beckman Liquid Scintillation Counter (Beckman Coulter) for 1 min. […] For analysis of dose response measurements and IC50 value determination, data of inhibitor-supplemented samples were normalized to DMSO solvent controls and their activity plotted against the inhibitor concentration. IC50 values were extracted from triplicate measurements by sigmoidal curve fitting using DataGraph (v. 5.0; https://www.visualdatatools.com/DataGraph/) or were determined by applying the Morrison quadratic equation for tight binding inhibitors using GraphPad Prism 10 (https://www.graphpad.com/) ([40]).

Another experiment has as its system T7, Cdk4/CycD3.
T7 construct: GST (of the complex); made in house; host or cells: Sf9 insect cells
Kind of experiment: radioactive in vitro kinase assay, Cdk4/CycD3. Type of experiment: biochemical, human. The settings on record: 0, 0.1, 1, 10, 100 μM compound, 0.2 μM kinase, 0.2 mM ATP. Here is the method:
as §1

T3 sequence (Q9NYV4 714-1063): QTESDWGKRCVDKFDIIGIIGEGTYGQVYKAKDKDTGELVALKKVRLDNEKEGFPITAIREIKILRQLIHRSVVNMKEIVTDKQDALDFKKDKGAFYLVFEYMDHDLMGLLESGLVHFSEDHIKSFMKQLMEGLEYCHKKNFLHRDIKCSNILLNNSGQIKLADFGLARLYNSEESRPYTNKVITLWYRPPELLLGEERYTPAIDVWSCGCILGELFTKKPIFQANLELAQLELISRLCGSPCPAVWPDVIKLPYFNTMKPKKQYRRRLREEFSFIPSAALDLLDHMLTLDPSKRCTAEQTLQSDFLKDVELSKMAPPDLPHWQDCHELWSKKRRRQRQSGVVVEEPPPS
T3 sequence (O75909 1-267 partner limits assumed): as the sequence (O75909 1-267 partner limits assumed) above
T1 sequence (Q15131 whole entry, the tested form may be a part): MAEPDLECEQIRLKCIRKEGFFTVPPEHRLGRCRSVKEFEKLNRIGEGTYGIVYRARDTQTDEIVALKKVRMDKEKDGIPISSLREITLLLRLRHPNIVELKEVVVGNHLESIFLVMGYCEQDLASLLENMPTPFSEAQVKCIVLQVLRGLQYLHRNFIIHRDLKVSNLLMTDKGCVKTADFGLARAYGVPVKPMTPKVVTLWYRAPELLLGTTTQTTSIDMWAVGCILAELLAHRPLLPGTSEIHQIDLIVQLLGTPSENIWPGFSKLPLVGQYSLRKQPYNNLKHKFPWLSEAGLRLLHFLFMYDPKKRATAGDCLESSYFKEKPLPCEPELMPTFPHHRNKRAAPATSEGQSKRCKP
T1 sequence (Q8N1B3 whole entry partner, the tested form may be a part): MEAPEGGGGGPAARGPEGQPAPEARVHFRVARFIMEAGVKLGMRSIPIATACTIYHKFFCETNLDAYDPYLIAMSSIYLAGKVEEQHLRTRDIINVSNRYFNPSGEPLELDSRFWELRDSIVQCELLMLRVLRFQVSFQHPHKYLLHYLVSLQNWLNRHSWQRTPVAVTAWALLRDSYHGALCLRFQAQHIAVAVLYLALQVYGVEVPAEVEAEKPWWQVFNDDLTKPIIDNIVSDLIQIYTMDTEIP

On to `Cn1cc(-n2cnc3c(NCc4nc5cc(Cl)c(Cl)cc5[nH]4)nc(N4CCOCC4)nc32)cn1` [SR-4835], for which, on Cdk10/CycQ (0, 0.1, 1, 10, 100 μM compound, 0.2 μM kinase), the “inhibition of Cdk10/CycQ activity” value is “moderate SR-4835 concentration dependent decrease”. The IC50 on Cdk10/CycQ (concentration range 1 nM to 1 mM, sigmoidal fit) turned out to be 1070 nM. The “inhibition of Cdk7 activity” value with Cdk7/CycH was “no inhibitory activity”. Further, the “Tm, Cdk12/CycK” value on Cdk12/CycK [1] (1 μM compound) stood at 51.45 °C; at Cdk12/CycK [1] (10 μM compound), 58.70 °C; at Cdk12/CycK [1] (100 μM compound) it was 60.45 °C. At Cdk12/CycK [1] (1 μM compound), the “∆Tm to DMSO control, Cdk12/CycK” value was “+0.80 °C”. Further, the “inhibition of DYRK1A activity” value in the experiment on DYRK1A is on record as “not inhibited”. Also, the “Tm, Cdk13/CycK” value on Cdk13/CycK (1 μM compound) is 54.40 °C; on Cdk13/CycK (10 μM compound) it was 58.80 °C; on Cdk13/CycK (100 μM compound), 60.30 °C. Moreover, on Cdk13/CycK (1 μM compound), the “∆Tm to DMSO control, Cdk13/CycK” value is “+0.25 °C”. Besides, in the experiment with HIPK3, the “inhibition of HIPK3 activity” value was “not inhibited”. Also, the “inhibitory effect on Cdk12/CycK activity, in words” value on Cdk12/CycK [2] is on record as “modest effects”. For the same molecule, in the experiment on Cdk4/CycD3, the “inhibition of Cdk4/CycD3 activity” value was “minimal decrease in kinase activity”.

A word on the IC50: it is the point on the concentration scale where inhibition reaches its midpoint.
